Assay results: the CheMixHub viscosity set

Assay: xn = mol fraction of the nth substance listed

CS(C)=O + COC(=O)OC
308.15 K, 101 kPa
Conditions	viscosity [mPa·s]
x1 = 0.0596	0.547
x1 = 0.1027	0.57
x1 = 0.1913	0.621
x1 = 0.2791	0.677
x1 = 0.371	0.743
x1 = 0.4598	0.814
x1 = 0.5007	0.853
x1 = 0.5479	0.897
x1 = 0.626	0.983
x1 = 0.7427	1.137
x1 = 0.8572	1.327
x1 = 0.9283	1.47

CCCCC + COC(C)=O
298.15 K, 101 kPa
Conditions	viscosity [mPa·s]
x1 = 0.05	0.342
x1 = 0.1	0.324
x1 = 0.1087	0.322
x1 = 0.15	0.309
x1 = 0.2	0.296
x1 = 0.2088	0.295
x1 = 0.25	0.285
x1 = 0.3	0.275
x1 = 0.3035	0.273
x1 = 0.35	0.266
x1 = 0.4	0.257
x1 = 0.401	0.258
x1 = 0.45	0.25
x1 = 0.5	0.243
x1 = 0.5022	0.243
x1 = 0.55	0.237
x1 = 0.5972	0.232
x1 = 0.6	0.232
x1 = 0.65	0.227
x1 = 0.7	0.223
x1 = 0.7028	0.223
x1 = 0.75	0.22
x1 = 0.8	0.218
x1 = 0.8002	0.219
x1 = 0.85	0.217
x1 = 0.9	0.216
x1 = 0.9009	0.218
x1 = 0.95	0.215

OC1CCCCC1 + COCCO
303.15 K, 101.3 kPa
Conditions	viscosity [mPa·s]
x2 = 0.135	31.36
x2 = 0.232	23.64
x2 = 0.3144	17.36
x2 = 0.4389	9.281
x2 = 0.4908	6.609
x2 = 0.5515	4.075
x2 = 0.9188	0.811

CCOC(=O)C(C)O (centres undefined) + COCCOCCOCCOCCOC
101 kPa
Conditions	viscosity [mPa·s]
303.15 K, x1 = 0.3998	2.815
308.15 K, x1 = 0.6001	2.385
323.15 K, x1 = 0.8001	1.605

CC(=O)O.NCCO + CS(C)=O
298.15 K, 101.3 kPa
Conditions	viscosity [mPa·s]
x2 = 0.069	1634
x2 = 0.143	1064
x2 = 0.223	420
x2 = 0.311	375.1
x2 = 0.404	139.5
x2 = 0.502	66.42
x2 = 0.612	29.5
x2 = 0.732	12.73
x2 = 0.852	6.71

NS(=O)(=O)O + CS(C)=O
298 K, 101.33 kPa
Conditions	viscosity [mPa·s]
x1 = 0.02135	2.438
x1 = 0.04282	3.041
x1 = 0.06425	3.822
x1 = 0.08365	4.853

OC1CCCCC1 + CS(C)=O
303.15 K, 101 kPa
Conditions	viscosity [mPa·s]
x2 = 0.1009	20.83
x2 = 0.1821	12.4
x2 = 0.2727	7.835
x2 = 0.373	5.386
x2 = 0.4703	4.069
x2 = 0.5678	3.265
x2 = 0.6724	2.732
x2 = 0.791	2.203
x2 = 0.8922	2.015

CS(C)=O + Cc1ccc(C)cc1
viscosity [mPa·s], 101 kPa
Conditions	x1 = 0.0993	x1 = 0.2067	x1 = 0.3019	x1 = 0.4	x1 = 0.5042	x1 = 0.59	x1 = 0.6956	x1 = 0.801	x1 = 0.8963
293.15 K	0.695	0.771	0.857	0.935	1.032	1.2	1.372	1.586	1.84
303.15 K	0.612	0.676	0.744	0.828	0.913	1.027	1.167	1.339	1.557
313.15 K	0.551	0.605	0.661	0.728	0.787	0.89	1.004	1.142	1.302
323.15 K	0.49	0.555	0.582	0.636	0.705	0.768	0.861	0.971	1.1

OC1CCCCC1 + Cc1ccc(Cl)cc1
303.15 K, 101 kPa
Conditions	viscosity [mPa·s]
x1 = 0.1115	4.565
x1 = 0.2202	8.427
x1 = 0.3262	12.25
x1 = 0.4296	16.24
x1 = 0.5305	20.28
x1 = 0.6289	24.45
x1 = 0.725	28.53
x1 = 0.8188	32.85
x1 = 0.9105	36.99

C1CCCCCCC1 + Cc1cccc(C)c1
viscosity [mPa·s], 101 kPa
Conditions	x2 = 0.1149	x2 = 0.1922	x2 = 0.2902	x2 = 0.412	x2 = 0.4831	x2 = 0.6078	x2 = 0.6874	x2 = 0.7916	x2 = 0.9058
308.15 K	1.376	1.182	1.004	0.8506	0.7816	0.6836	0.64	0.5877	0.5525
313.15 K	1.266	1.085	0.9357	0.7866	0.734	0.6372	0.6046	0.5645	0.5202

CCCCCCCO + Cc1ccccc1
viscosity [mPa·s], 101 kPa
Conditions	298.15 K	308.15 K
x2 = 0.0525	4.969	3.846
x2 = 0.1014	4.357	3.429
x2 = 0.1518	3.776	3.068
x2 = 0.1859	3.412	2.862
x2 = 0.2489	2.873	2.456
x2 = 0.3011	2.473	2.202
x2 = 0.3504	2.153	1.942
x2 = 0.4006	1.843	1.719
x2 = 0.4494	1.63	1.542
x2 = 0.5003	1.435	1.357
x2 = 0.5486	1.245	1.223
x2 = 0.5903	1.12	1.094
x2 = 0.6493	0.965	0.967
x2 = 0.7011	0.893	0.874
x2 = 0.752	0.768	0.766
x2 = 0.8041	0.676	0.664
x2 = 0.8495	0.645	0.624
x2 = 0.9009	0.6	0.575
x2 = 0.9487	0.572	0.527

CCOC(=O)C(C)O (centres undefined) + Cc1ccccc1
101 kPa
Conditions	viscosity [mPa·s]
298.15 K, x1 = 0.7999	1.695
303.15 K, x1 = 0.3	0.7345
303.15 K, x1 = 0.7	1.295
313.15 K, x1 = 0.4	0.7225

CS(C)=O + Cc1ccccc1
Conditions	viscosity [mPa·s]
298.15 K, 101 kPa, x1 = 0.1	0.606
298.15 K, 101 kPa, x1 = 0.2	0.675
298.15 K, 101 kPa, x1 = 0.3	0.761
298.15 K, 101 kPa, x1 = 0.4	0.867
298.15 K, 101 kPa, x1 = 0.5	0.99
298.15 K, 101 kPa, x1 = 0.6	1.122
298.15 K, 101 kPa, x1 = 0.7	1.268
298.15 K, 101 kPa, x1 = 0.8	1.452
298.15 K, 101 kPa, x1 = 0.9	1.679
298.15 K, 101.3 kPa, x1 = 0.1025	0.609
298.15 K, 101.3 kPa, x1 = 0.2029	0.671
298.15 K, 101.3 kPa, x1 = 0.3843	0.838
298.15 K, 101.3 kPa, x1 = 0.504	0.964
298.15 K, 101.3 kPa, x1 = 0.6035	1.095
298.15 K, 101.3 kPa, x1 = 0.7049	1.25
298.15 K, 101.3 kPa, x1 = 0.7997	1.43
298.15 K, 101.3 kPa, x1 = 0.9017	1.686
302.4 K, 101 kPa, x1 = 0.0908	1.087
302.4 K, 101 kPa, x1 = 0.2568	1.399
302.4 K, 101 kPa, x1 = 0.4732	1.615
302.4 K, 101 kPa, x1 = 0.5996	2.242
302.4 K, 101 kPa, x1 = 0.7139	2.506
302.4 K, 101 kPa, x1 = 0.8665	3.234
303.15 K, 101.3 kPa, x1 = 0.1025	0.574
303.15 K, 101.3 kPa, x1 = 0.2029	0.636
303.15 K, 101.3 kPa, x1 = 0.3843	0.777
303.15 K, 101.3 kPa, x1 = 0.504	0.894
303.15 K, 101.3 kPa, x1 = 0.6035	1.01
303.15 K, 101.3 kPa, x1 = 0.7049	1.149
303.15 K, 101.3 kPa, x1 = 0.7997	1.309
303.15 K, 101.3 kPa, x1 = 0.9017	1.526
308.15 K, 101 kPa, x1 = 0.1	0.537
308.15 K, 101 kPa, x1 = 0.2	0.594
308.15 K, 101 kPa, x1 = 0.3	0.664
308.15 K, 101 kPa, x1 = 0.4	0.741
308.15 K, 101 kPa, x1 = 0.5	0.833
308.15 K, 101 kPa, x1 = 0.6	0.937
308.15 K, 101 kPa, x1 = 0.7	1.065
308.15 K, 101 kPa, x1 = 0.8	1.217
308.15 K, 101 kPa, x1 = 0.9	1.407
308.15 K, 101.3 kPa, x1 = 0.1025	0.54
308.15 K, 101.3 kPa, x1 = 0.2029	0.598
308.15 K, 101.3 kPa, x1 = 0.3843	0.727
308.15 K, 101.3 kPa, x1 = 0.504	0.833
308.15 K, 101.3 kPa, x1 = 0.6035	0.963
308.15 K, 101.3 kPa, x1 = 0.7049	1.062
308.15 K, 101.3 kPa, x1 = 0.7997	1.204
308.15 K, 101.3 kPa, x1 = 0.9017	1.398
318.15 K, 101 kPa, x1 = 0.1	0.482
318.15 K, 101 kPa, x1 = 0.2	0.53
318.15 K, 101 kPa, x1 = 0.3	0.587
318.15 K, 101 kPa, x1 = 0.4	0.654
318.15 K, 101 kPa, x1 = 0.5	0.731
318.15 K, 101 kPa, x1 = 0.6	0.817
318.15 K, 101 kPa, x1 = 0.7	0.921
318.15 K, 101 kPa, x1 = 0.8	1.047
318.15 K, 101 kPa, x1 = 0.9	1.201
